{"source": "patent US20030064967A1", "about": "(priority 2001, published 2003)", "key": {"[1]": {"tested_on": "HepG2 cells", "experiment": "Cell culture assay and ELISA for apoAI HDL increase in HepG2 cells", "format": "cell-based, human", "protocol": "A cell culture assay and ELISA was conducted to measure apoAi HDL increase in HepG2 cells were obtained from the American Type Culture Collection (Rockville, Md.). Fetal bovine serum (FBS) was purchased from Gibco Laboratories. Cells were cultured in minimum essential medium (MEM) containing 10% FBS, and 100 μg/mL of streptomycin, 100 unit/mL of penicillin, and 4 mM of glutamine (Gibco/BRL). Cells were grown for 2 days till they are 80% confluent in 6-well, or 12-well plates before studies. In all cases medium was changed every other day. To measure apoAI, 96-well microtiter plates were coated with a 1:1000 diluted mixture of three monoclonal antibodies against human apoAI (A05, A17, and A44) for 2 h and incubated in succession with HDL3 (0 to 15 ng/well), sheep polyclonal anti-apoAI serum (Boehringer Mannheim), alkaline phosphatase-labeled rabbit anti-sheep (Cappel), and p-nitrophenyl phosphate (1 mg/mL in 10 mmol/L ethanolamine, 0.5 mmol/L MgCl2, pH 9.5), for 2, 1 and 1 h respectively at 37° C. The plates were washed three times between different incubations. The absorbance at 405 nm was determined by using a Bio-Rad model 550 microplate reader (Bio-Rad)."}, "[2]": {"tested_on": "HepG2 cells", "experiment": "Internalization and degradation of 125I-HDL3 by HepG2 cells", "format": "cell-based", "protocol": "In another aspect of the invention, compounds that increase the levels of plasma HDL holoproteins can be selected using the following process. First, the compound is added to a hepatic model, preferably hepatic cells, more preferably HepG2 cells. Labeled apoAI-HDL, preferably a radioactive isotope label, more preferably ^125I, in the presence or absence of compounds is then added to the cells. The […] labeled apoAI-HDL in the conditioned medium represents degraded labeled apoAI-HDL. After washing and detaching, cells are centrifuged. Labeled apoAI-HDL in the cellular fraction represents internalized HDL holoprotein; whereas, label in the supernatant represents cell surface bound apoAI-HDL that has been dissociated. Increased amounts of labeled HDL in cells treated with compounds versus cells not treated with compounds indicates increased degradation, internalization, or binding to the cell surface. Compounds are selected which […] the amount of apoAI-HDL label in the cellular fraction of the cells contacted with a test compound compared to the amount of label in the cellular fraction of the cells not contacted with the test compound.\nIn another aspect of the invention, compounds that increase the levels of plasma HDLc can be selected by contacting a hepatic model, preferably hepatic cells, more preferably HepG2 cells with test compounds. Labeled apoAI-HDL, preferably a radioactive isotope label, more preferably ^125I, in the presence or absence of compounds is then added to the cells. Label in the conditioned medium represents degraded labeled-HDL. After washing and detaching, cells are centrifuged. Label in the cellular fraction represents internalized HDL holoprotein; whereas, label in the supernatant represents cell surface bound apoAI-HDL that has been dissociated. Increased amounts of label in cells treated with compounds versus cells not treated with compounds indicates increased degradation, internalization, or binding of apoAI-HDL to the cell surface. […]"}, "[3]": {"tested_on": "apoAI", "experiment": "Synthesis of apoAI"}, "[4]": {"tested_on": "HepG2 cells", "experiment": "Uptake of 3[H]cholesteryl hexadecyl ether-labeled HDL in HepG2 cells", "format": "cell-based", "settings": "for % 3[H]-CE uptake: 12.5 μM compound, 20-50 μg/mL 3[H]-CE HDL, 3.5 h, 37° C.; for clearance / selective uptake of cholesteryl ester: HepG2 cells", "protocol": "An in vitro assay was conducted to measure the uptake of ^3[H]cholesteryl Hexadecyl Ether-labeled HDL in HepG2 cells. ^3[H]cholesteryl Hexadecyl Ether-labeled HDL was prepared as described by Rodrigueza et al. (Rodrigueza W. V. et al. (1999) J. Biol. Chem. 274:20344-20350). 40 μCi of ^3[H]hexadecyl ether (40-60 Ci/mmol, NEN life Sciences Products) were incubated with 5 mg of HDL3 and 240 mg of heat-inactivated lipoprotein-deficient plasma, 0.01% aprotinin in a polypropylene tube sealed with nitrogen gas for 40 h at 37° C. according to the method of Terpstra et al . ^3[H]-CE enriched HDL was re-isolated by flotation ultracentrifugation and dialyzed against phosphate-buffered saline (PBS). To perform CE uptake studies, HepG2 cells, seeded in 6 or 12 well plates were grown for 2 days till 80% confluent and, then treated with compounds in 1% RSA-DMEM medium for 24 h. The next day, cells were treated with 12.5 μM compounds and 20-50 μg/mL of ^3[H]-CE HDL for 3.5 h at 37° C. After incubation, cells were washed 4 times with PBS/BSA and 2 times with PBS, followed by addition of 0.1 N NAOH. Cells were collected, and radioactivity was measured in counts per minute and expressed as percent of ^3[H]-CE delivered to cells."}, "[5]": {"tested_on": "human apo A-1 transgenic mice", "experiment": "HDL cholesterol and human apoAI levels in human apo-A1 transgenic mice (InVivo II)", "format": "in vivo", "protocol": "The following assay was conducted to evaluate the effect of Compound A on HDL cholesterol levels in Human apo-A1 transgenic mice. Six-eight week old male human apo A-1 transgenic mice (catolog number JR 1927) were obtained from Jackson Labs. Upon arrival the mice were acclimated for three days on standard rodent diet and water ad libitum. Mice were then given a diet supplemented with 1.25% cholesterol, 7.5% cocoa butter and 0.5% sodium cholate for two weeks. Compound A was administered to the animals by gavage in methylcellulose at a dose of 150 mg/kg/d for two weeks concomitant with the high fat diet. At the end of the treatment period the mice were fasted overnight and then euthanized by CO2 inhalation. Blood was collected by cardiac puncture. Plasma was fractionated by fast phase liquid chromatography and cholesterol in the different lipoprotein fractions determined by an enzymatic assay. An ELISA was completed shoing an increase of h-apoAI of 65%."}, "[6]": {"tested_on": "hypercholesterolemic hamsters", "format": "in vivo", "protocol": "The following assay was conducted to HDL elevation in hamsters. Male Golden Syrian hamsters weighing 110-120 g were obtained from Charles River Laboratories (Wilmington, Mass.). Hamsters were housed individually with wood chip bedding and soft nesting material with lights on a 6 A.M. and off at 6 p.m. Upon arrival the hamsters were acclimated for three days on standard rodent chow and water (Purina rodent chow 5001) ad libitum. Prior to dosing, the hamsters were made hypercholesterolemic by feeding them a powdered diet supplemented with 0.5% cholesterol and 10% coconut oil (Harlan Teklad diet #97235) for one week. Water was added to the powdered chow to form a paste and the chow paste rolled into balls with each animal receiving 20 g of chow paste per day in stainless steel bowls. Chow intake was recorded daily. Body weights were recorded after one week and at the end of the end of the study. Hamsters were distributed into treatment groups after the one-week pretreatment period such that each group had similar average body weights.\nCompounds were added to a high cholesterol chow paste and administered as an admixture at the same time each morning for two weeks. At the end of the treatment period the hamsters were fasted in the late afternoon on the day prior to blood collection. Fasting was achieved by transferring the hamsters to clean cages and removing chow stored in cheek pouches. Hamsters were anesthetized with ketamine/rompun solution. When unresponsive to toe pinch and still respiring, blood was collected via cardiac puncture from which plasma was separated and frozen at −80° C.\nLipoproteins were isolated from whole plasma by Fast Phase Liquid Chromatography (FPLC). Cholesterol and triglyceride concentrations in the different lipoprotein fractions were determined by enzymatic methods using a CX-5 chemical analyzer and standard Beckman reagents.\nA Dunnetts test was used to compare the experimental and control groups. P<0.05: was considered significant."}, "[7]": {"format": "in vivo", "settings": "one study; 150 mg/kg/d by gavage in methylcellulose"}}, "note": "“And” between values parts separate entries of the source, which are not always exact repeats. Equal entries are not always repeated."}
{"compound": "COC(=O)CCCC(=O)Oc1c(C(C)(C)C)cc(SC(C)(C)Sc2cc(C(C)(C)C)c(O)c(C(C)(C)C)c2)cc1C(C)(C)C", "note": "[Compound D, Pentanedioic Acid, [4-[1-[[3,5-bis(1,1-dimethylethyl)-4-hydroxyphenyl]thio]-1-methylethyl]-thio-2,6-bis(1,1-dimethylethyl)phenyl], Methyl Ester]", "values": [{"measurement": "% increase apoAI HDL", "setting": "[1]", "result": 27, "unit": "%"}]}
{"compound": "CC(C)(Sc1cc(C(C)(C)C)c(O)c(C(C)(C)C)c1)Sc1cc(C(C)(C)C)c(O)c(C(C)(C)C)c1", "note": "[Probucol, 4,4′-(isopropylidenedithio) bis(2,6-di-tert-butylphenol), reference compound]", "values": [{"measurement": "internalization of 125I-HDL3 / HDL holoprotein uptake", "setting": "[2]", "result": "reduced HDL holoprotein uptake"}, {"measurement": "effect on synthesis of apoAI", "setting": "[3]", "result": "reduced the synthesis of apoAI"}, {"measurement": "% 3[H]-CE uptake", "setting": "[4]", "result": 13, "unit": "%"}, {"measurement": "% increase apoAI HDL", "setting": "[1]", "result": "−21", "unit": "%"}]}
{"compound": "CC(C)(Sc1cc(C(C)(C)C)c(O)c(C(C)(C)C)c1)Sc1cc(C(C)(C)C)c(OC(=O)COCC(=O)O)c(C(C)(C)C)c1", "note": "[Compound C, Carboxymethoxyacetic Acid, mono[4-[1-[[3,5-bis(1,1-dimethylethyl)-4-hydroxyphenyl]thio]-1-methyl-ethyl]-thio-2,6-bis(1,1-dimethylethyl)phenyl]ester]", "values": [{"measurement": "% increase apoAI HDL", "setting": "[1]", "result": 47, "unit": "%"}]}
{"compound": "CC(C)(Sc1cc(C(C)(C)C)c(O)c(C(C)(C)C)c1)Sc1cc(C(C)(C)C)c(OC(=O)CCCC(=O)O)c(C(C)(C)C)c1", "note": "[Compound A, Pentanedioic Acid, mono[4-[[1-[[3,5-bis(1,1-dimethylethyl)-4-hydroxyphenyl]thio]-1-methylethyl]thio]-2,6-bis(1,1-dimethylethyl)phenyl]ester]", "values": [{"measurement": "degradation of 125I-HDL3", "setting": "[2]", "result": "decreases degradation"}, {"measurement": "internalization of 125I-HDL3 / HDL holoprotein uptake", "setting": "[2]", "result": "decreases internalization"}, {"measurement": "increase of human apoAI (ELISA)", "setting": "[5]; 150 mg/kg/d by gavage, two weeks, high fat diet", "result": "64% and 65%"}, {"measurement": "increase in HDL cholesterol (FIG. 7)", "setting": "[5]; hypercholesterolemic human apo-AI transgenic mice", "result": 71, "unit": "%"}, {"measurement": "% 3[H]-CE uptake", "setting": "[4]", "result": 42, "unit": "%"}, {"measurement": "clearance / selective uptake of cholesteryl ester", "setting": "[4]", "result": "enhance the clearance of cholesteryl ester"}, {"measurement": "HDLc elevation, range of three experiments", "setting": "[6]; 150 mg/kg/d, two weeks", "result": "5-44%"}, {"measurement": "body weight", "setting": "[6]; 150 mg/kg/d, two weeks", "result": "all animals gained weight"}, {"measurement": "tolerability", "setting": "[6]; 150 mg/kg/d, two weeks", "result": "well tolerated"}, {"measurement": "HDLc elevation compared to untreated controls", "setting": "[6]; average of three experiments, 150 mg/kg/d, two weeks, in chow", "result": 22, "unit": "%"}, {"measurement": "LDLc reduction compared to controls", "setting": "[6]; average, n=3, 150 mg/kg/d, two weeks", "result": 29, "unit": "%"}, {"measurement": "increase in HDL cholesterol levels (FIG. 1)", "setting": "[6]; hypercholesterolemic hamsters", "result": 24, "unit": "%"}, {"measurement": "VLDL cholesterol reduction compared to controls", "setting": "[6]; n=3, 150 mg/kg/d, two weeks", "result": 42, "unit": "%"}, {"measurement": "VLDL cholesterol reduction, range", "setting": "[6]; n=3, 150 mg/kg/d, two weeks", "result": "22-53%"}, {"measurement": "triglycerides reduction compared to controls", "setting": "[6]; n=3, 150 mg/kg/d, two weeks", "result": 24, "unit": "%"}, {"measurement": "triglycerides reduction, range", "setting": "[6]; n=3, 150 mg/kg/d, two weeks", "result": "7-33%"}, {"measurement": "% increase apoAI HDL", "setting": "[1]", "result": 33, "unit": "%"}]}
{"compound": "CC(C)(Sc1cc(C(C)(C)C)c(O)c(C(C)(C)C)c1)Sc1cc(C(C)(C)C)c(OC(=O)CCCOS(=O)(=O)[O-])c(C(C)(C)C)c1.[Na+]", "note": "[Compound B, 4-[4-[1-[[3,5-bis(1,1-dimethylethyl)-4-hydroxyphenyl]thio]-1-methylethyl]-thio-2,6-bis-(1,1-dimethyl-ethyl)phenoxy]-4-oxo-1-butyl Sodium Sulfate]", "values": [{"measurement": "% 3[H]-CE uptake", "setting": "[4]", "result": 44, "unit": "%"}, {"measurement": "clearance / selective uptake of cholesteryl ester", "setting": "[4]", "result": "enhance the clearance of cholesteryl ester"}, {"measurement": "mortality", "setting": "[7]", "result": "all of the mice died"}, {"measurement": "% increase apoAI HDL", "setting": "[1]", "result": 26, "unit": "%"}]}
